# Laboratory results published in PubChem BioAssay (NCI).
#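 All cell lines were grown in 96-well plates and treated with compound for 48 hours. TGI denotes the concentration required for complete inhibition of growth.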
# How the values were obtained:
# Experiment in all cases: NCI anticancer screen, dose series, 48 h
# DU-145 prostate = system: DU-145 prostate
# EKVX NSCLC = system: EKVX NSCLC
# HCT-116 colon = system: HCT-116 colon
# HCT-15 colon = system: HCT-15 colon
# HOP-62 NSCLC = system: HOP-62 NSCLC
# K-562 leukemia = system: K-562 leukemia
# LOX IMVI melanoma = system: LOX IMVI melanoma
# MDA-MB-231 breast = system: MDA-MB-231 breast
# MDA-MB-435 = system: MDA-MB-435
# MOLT-4 leukemia = system: MOLT-4 leukemia
# NCI-H23 lung = system: NCI-H23 lung
# NCI-H522 lung = system: NCI-H522 lung
# OVCAR-3 ovarian = system: OVCAR-3 ovarian
# OVCAR-4 ovarian = system: OVCAR-4 ovarian
# SF-268 CNS = system: SF-268 CNS
# SF-295 CNS = system: SF-295 CNS
# SK-MEL-2 melanoma = system: SK-MEL-2 melanoma
# SK-MEL-5 melanoma = system: SK-MEL-5 melanoma
# SNB-75 CNS = system: SNB-75 CNS
# SR leukemia = system: SR leukemia
Compound,TGI (DU-145 prostate) [µM],TGI (EKVX NSCLC) [µM],TGI (HCT-116 colon) [µM],TGI (HCT-15 colon) [µM],TGI (HOP-62 NSCLC) [µM],TGI (K-562 leukemia) [µM],TGI (LOX IMVI melanoma) [µM],TGI (MDA-MB-231 breast) [µM],TGI (MDA-MB-435) [µM],TGI (MOLT-4 leukemia) [µM],TGI (NCI-H23 lung) [µM],TGI (NCI-H522 lung) [µM],TGI (OVCAR-3 ovarian) [µM],TGI (OVCAR-4 ovarian) [µM],TGI (SF-268 CNS) [µM],TGI (SF-295 CNS) [µM],TGI (SK-MEL-2 melanoma) [µM],TGI (SK-MEL-5 melanoma) [µM],TGI (SNB-75 CNS) [µM],TGI (SR leukemia) [µM]
COc1cc(-c2nc3ccccn3c2/N=C/c2cc(Br)cc(Br)c2O)ccc1O,84.3,54.5,34.7,44.8,52.5,> 100,64.9,36.3,72,73.7,67.9,58.2,39,61.3,39.7,50,42.2,72.4,66.6,62.7
CCOC(=O)c1cc2c3ccn(Cc4ccccc4)c3c3c(C)[nH]oc3c2n1,> 100,> 100,> 100,> 100,> 100,> 100,> 100,> 100,> 100,> 100,> 100,> 100,> 100,> 100,> 100,> 100,> 100,> 100,> 100,> 100
CCOC(=O)c1ccc(NCc2ccc3oc(=O)c(-c4ccccc4)nc3c2)cc1,> 100,> 100,80.3,> 100,> 100,85.8,> 100,> 100,32.7,60.4,44.5,32.1,90.5,54.1,> 100,> 100,> 100,45.2,> 100,> 100
CN(C(=O)Cc1cccc(N=C=S)c1)[C@H]1CCCC[C@@H]1N1CCCC1,27.7,39.6,26,31.2,33.2,53.2,31.3,31.8,27.8,29,29.5,27.6,28,28.5,36.4,> 100,34.4,20.4,27.8,29.2
O=C(N/N=C\C=C\c1ccc([N+](=O)[O-])o1)C(=O)N/N=C\C=C\c1ccc([N+](=O)[O-])o1,> 100,> 100,> 100,> 100,> 100,> 100,> 100,> 100,> 100,> 100,> 100,> 100,55,> 100,> 100,> 100,> 100,> 100,> 100,> 100
COc1cc2cc3c4cc(OC)c(OC)cc4cc[n+]3c(C)c2cc1OC (tested in a mixture with another compound),> 100,> 100,> 100,> 100,> 100,> 100,> 100,> 100,> 100,> 100,> 100,> 100,> 100,> 100,> 95,> 100,> 100,> 100,> 88.3,> 100
CO/C=C(/C(=O)OC)c1ccccc1COc1cccc(C(F)(F)F)c1,> 100,> 100,> 100,> 100,> 100,> 100,13.6,68.8,23.1,> 100,> 100,5.86,55,> 100,> 100,> 100,34.2,14.5,64.8,> 100
CCOC(=O)c1cn2c(n1)sc1cc(Cl)ccc12,> 100,> 100,13.6,> 100,61.6,> 100,> 100,> 100,> 100,> 100,> 100,> 100,64.5,> 100,> 100,> 100,> 100,> 100,> 100,> 100
O=C(NCP(=O)(c1ccccc1)c1ccccc1)OCc1ccccc1,> 100,> 100,> 100,> 100,> 100,> 100,> 100,> 100,> 100,> 100,> 100,> 100,> 100,> 100,> 100,> 100,> 100,> 100,> 100,> 100
